# Data as given in patent US8034839B2, “Method of treating ocular allergy” (Alcon Research, Ltd., priority 2005, dated 2011).
# Marks after values point to notes of the source that are not given here.
# Experiments:
# [1] = system: conjunctival EPO activity; assay: Mouse late-phase allergy model (OVA-induced allergic conjunctivitis), conjunctival EPO activity assay; assay type: in vivo, mouse (female BALB/c); settings: for EPO Activity (ng/ml/mg tissue) ± S.D.: single 5 μl topical drop O.D. BID, conjunctival EPO activity at 24 hrs post-challenge, mean ± S.D.
# Description: Active Sensitization and Induction of Allergic Conjunctivitis (AC)
# Female BALB/c mice, 6 to 9 months old (Charles River Labs), were given a single intraperitoneal injection of 100 μg chicken ovalbumin (OVA; Sigma) which had been absorbed to 5 mg of alum (Pierce Chemical) as an adjuvant or 5 mg alum only (unsensitized group). On day 14 after sensitization, all mice were challenged with a single topical drop O.D. of 1 mg OVA dissolved in 5 μl PBS.
# Drugs or vehicles were administered to mice as a single 5 μl drop O.D. at 60 min before challenge and again at 16 hrs after challenge (BID dosing). Mice were euthanized at 24 hrs after challenge.
# Mice were euthanized at 24 hrs after topical challenge and upper and lower eyelids containing palpebral conjunctiva were excised and immediately frozen on dry ice. Samples were weighed frozen and then thawed and homogenized on ice in 2 ml of 50 mM HEPES buffer, pH 6.5. Samples were pelleted at 4000 rpm for 20 min at 4° C. and supernatants were discarded. To each pellet, 1 ml of 0.5% cetyltrimethylammonium chloride (CTAC) was added and samples were vortexed vigorously. Samples were then subjected to three freeze-thaw cycles between −80° C. and 37° C. After final thaw, samples were sonicated on ice for 15-30 sec and pelleted at 4000 rpm for 20 min at 4° C. EPO activity assay was performed on supernatants.
# For the EPO activity assay, 75 μl of each sample were added in triplicate to wells of a 96-well clear flat-bottomed microplate. 75 μl of EPO substrate solution [6 mM o-phenylenediamine (OPD), 8.8 mM H2O2, and 6 mM KBr in 50 mM HEPES, pH 6.5] were then added to each well using a multichannel pipetter. The reaction was allowed to run for 3 min and was stopped by addition of 150 μl of 4M H2SO4. Optical density at 490 nm (OD490) was read on a Bio-Tek Synergy. HT plate reader. […] 75 μl triplicates of each standard were used on each run of the assay. Linear regression was determined for the resulting plot of [EPO] vs OD490. Final [EPO] in each sample was determined by solving for x in the equation y=m*x+b, where y=OD490, m=[…].
# Groups of means were compared using Student's unpaired t-test or Dunnett's t-test where appropriate. […] Data are expressed as mean±standard deviation.
# neutrophils = settings: disclosed by Lee et al., Biochem. Biophys. Res. Commun. 1991; cited from earlier work
SMILES,"inhibition of conjunctival EPO activity (in words) ([1]; all three doses (0.001%, 0.01%, and 0.1% solutions), 24 hrs post-challenge, efficacy comparable to 0.1% dexamethasone)",EPO Activity (ng/ml/mg tissue) ± S.D. ([1]; dose 0.001%),EPO Activity (ng/ml/mg tissue) ± S.D. ([1]; dose 0.01%),EPO Activity (ng/ml/mg tissue) ± S.D. ([1]; dose 0.1%),inhibition of LTB4-induced chemotaxis of neutrophils (neutrophils)
COC(=O)CCC[C@H](O)[C@H](O)CO [compound 1],significantly inhibited,"5.2 ± 2.5^c,d ng/ml/mg tissue","4.8 ± 1.2^c,d ng/ml/mg tissue","3.2 ± 1.0^c,d ng/ml/mg tissue",as potently as lipoxin A4
CCCCC[C@H](O)[C@H](O)CO [compound 2],–,–,–,–,as potently as lipoxin A4
"C[C@@H]1C[C@H]2[C@@H]3CCC4=CC(=O)C=C[C@]4(C)[C@@]3(F)[C@@H](O)C[C@]2(C)[C@@]1(O)C(=O)CO [dexamethasone, reference compound]",–,–,–,4.0 ± 0.5^c ng/ml/mg tissue,–
"CCCCC[C@H](O)/C=C/C=C\C=C\C=C\[C@@H](O)[C@@H](O)CCCC(=O)O [lipoxin A4, Lipoxin A4, reference compound]",–,–,–,–,inhibit
